{"source": "patent US8906945B2", "about": "(priority 2009, dated 2014)", "key": {"[1]": {"test_system": "P. aeruginosa T3SS (exoT-luxCDABE reporter strain MDM852)", "assay_type": "cell-based, Pseudomonas aeruginosa"}, "[2]": {"test_system": "T3SS-mediated secretion of ExoS′-βLA fusion protein from P. aeruginosa strain MDM973", "assay": "microbe, parasite or virus in culture", "assay_type": "cell-based, Pseudomonas aeruginosa", "conditions": "for IC50: Pseudomonas aeruginosa"}, "[3]": {"test_system": "T3SS-mediated secretion of YopE-βLA fusion protein from Y. pestis strain JG153/pMM85", "assay": "microbe, parasite or virus in culture", "assay_type": "cell-based", "conditions": "Yersinia pestis"}, "[4]": {"test_system": "Chlamydia trachomatis L2 in Hep-2 cells", "assay": "Chlamydia trachomatis growth inhibition assay", "assay_type": "cell-based", "method": "Inhibition of the growth of Chlamydia trachomatis L2 strain by compounds was measured in 24-well plates essentially according to the method of Wolf et al. (59). Confluent monolayer Hep-2 cells were infected with L2 at an MOI of 0.5 and treated with compounds at indicated concentrations for 48 h. Then cultures were collected and sonicated. Entire lysates were used for counting inclusion forming units (IFUs) as a measurement of production of Chlamydia progeny elementary bodies (EBs) by re-plating onto fresh HeLa monolayers. An uninhibited control (DMSO only) and a complete inhibition control (chloramphenicol, 200 μg/ml) were included. Experiments were done in triplicate."}, "[5]": {"test_system": "P. aeruginosa", "assay": "Minimum inhibitory concentration (broth microdilution)", "conditions": "Pseudomonas aeruginosa, read-out: MIC vs. P. aeruginosa"}, "[6]": {"test_system": "HeLa cell internalization of P. aeruginosa", "assay": "Gentamicin protection assay of bacterial internalization", "conditions": "50 μM, ExoT-producing P. aeruginosa, MOI 10"}, "[7]": {"conditions": "50 μM added after 2.5 hours of T3SS induction"}}, "note": "“Also recorded” adds a separate entry of the source. Like-named read-outs stand apart in the source and are kept apart here.", "data": [{"compound": "CC(Oc1ccc(Cl)cc1Cl)C(=O)NCc1ccc2c(c1)OCO2", "note": "(racemic) [Compound 1, N-(benzo[d][1,3]dioxol-5-ylmethyl)-2-(2,4-dichlorophenoxy)propanamide]", "values": [{"measurement": "Serum Effect", "setting": "[1]; % inhibition of exoT-lux RLU in the absence of serum/% inhibition in the presence of 10% fetal calf serum, both at 50 μM compound", "result": 3.7}, {"measurement": "z-score in the high throughput screen", "setting": "[1]; strain MDM852, RLU at 200 minutes", "result": 10}, {"measurement": "time to 50% inhibition of ExoS′-βLA secretion", "setting": "[2]; [7]", "result": "≤ 15", "unit": "min"}, {"measurement": "time to 100% inhibition of ExoS′-βLA secretion", "setting": "[2]; [7]", "result": "≤ 45", "unit": "min"}, {"measurement": "IC50", "setting": "[2]; read-out: ExoS′-βLA IC50, Table 3, secretion from P. aeruginosa strain MDM973 reduced by 50%", "result": 12.5, "unit": "µM"}, {"measurement": "IC50", "setting": "[2]; read-out: IC50 (μM) (ExoS′-βLA assay), Table 4", "result": 10, "unit": "µM"}, {"measurement": "potency when administered during or after the 2.5 hour EGTA induction of T3SS", "setting": "[2]; unpublished observations", "result": "equally potently"}, {"measurement": "IC50", "setting": "[3]; read-out: IC50 of YopE-βLA secretion from Y. pestis strain JG153", "result": "~38", "unit": "µM"}, {"measurement": "IC50", "setting": "[3]; read-out: yopE-βLA IC50", "result": 22, "unit": "µM"}, {"measurement": "reduction of growth of C. trachomatis L2 in Hep-2 cells", "setting": "[4]; 50 μM, MOI 0.5, listed as MBX 1641", "result": "significantly reduced; also recorded: inhibits the growth"}, {"measurement": "concentration dependence of effect on C. trachomatis growth in Hep-2 cells", "setting": "[4]; FIG. 3D", "result": "concentration-dependent effect"}, {"measurement": "MIC", "setting": "[5]", "result": "> 100", "unit": "µM"}, {"measurement": "stimulation of internalization of bacterial cells by HeLa cells", "setting": "[6]", "result": "over 11 fold"}]}]}
